These are literature values, as cited in the CATMoS acute toxicity set (Mansouri et al. 2021).

By LD50 is commonly meant the dose expected to kill half of the subjects tested.

Where “and” joins values, the source holds several entries; their conditions need not be identical. Identical values can stand only once.

The series can be described thus: rat acute oral toxicity. Particulars: in vivo.
On to `C[C@H]1O[C@@H](O[C@H]2[C@@H](O)C[C@H](O[C@H]3[C@@H](O)C[C@H](O[C@H]4CC[C@@]5(C)[C@H](CC[C@@H]6[C@@H]5C[C@@H](O)[C@]5(C)[C@@H](C7=CC(=O)OC7)CC[C@]65O)C4)O[C@@H]3C)O[C@@H]2C)C[C@H](O)[C@@H]1O`, for which the LD50 is 28.3 mg/kg. As for `CCN(CC)c1ccc(C=O)c(O)c1`, the LD50 was 2260 mg/kg. For the compound `CC(=O)Nc1ccc(N=NN(C)C)cc1`, the LD50 was 510 mg/kg.

Consider `O=C(O)c1cccc(Cl)n1`, for which the LD50 was 2180 mg/kg. `C[C@H](NCC=C(c1ccsc1)c1ccsc1)[C@H](O)c1ccccc1`: the LD50 is 6600 mg/kg.

Turning to `CCCCc1ccc(O)c(C(=O)Nc2cccc(C(F)(F)F)c2)c1`, the LD50 was 2500 mg/kg. On to `CN1CCN(C2=Nc3ccccc3Sc3ccc(Cl)cc32)CC1`, for which the LD50 is 280 mg/kg. With `O=C(O)Cc1cc(O)ccc1Nc1c(Cl)cc(O)cc1Cl`, the LD50 was 1000 mg/kg. In the case of `CC(C)(C)NCC(O)COc1cccc2c1C[C@H](O)[C@H](O)C2` (stereo partly specified), the median lethal dose (LD50) was 5300 mg/kg. As for `CCN(CC)C(=S)N/N=C/c1ccc([N+](=O)[O-])o1`, the median lethal dose (LD50) is 750 mg/kg.

Regarding `COc1ccc2c(c1)OC(C)(C)C(c1ccccc1)=C2c1ccc(OCC(O)CNC(C)C)cc1` (stereo unspecified), the 50% lethal dose (LD50) is 1000 mg/kg.

On to `CCC1(CCC(C)C)C(=O)NC(=O)NC1=O`, for which the LD50 is 250 mg/kg. For the compound `ClC1=C(Cl)C2(Cl)C3CCCCC3C1(Cl)C2(Cl)Cl` (stereo unspecified), the LD50 was 100 mg/kg. Consider `Cc1cccc(C)c1N(CCCC(=O)O)C(=O)c1ccc(Cl)cc1`, for which the LD50 was 1900 mg/kg.

Consider `CNN`, for which the LD50 is 58 mg/kg. `CC(C)(C)NCC(O)COc1cccc2c1CCC(=O)N2` (stereo unspecified): the LD50 was 1330 mg/kg. Regarding `Cc1c(C)c(C)c2[nH]c(C(F)(F)F)nc2c1C`, the LD50 is 58 mg/kg. For `OCCCC(O)CO` (stereo unspecified), the LD50 is 7800 mg/kg. On to `O=C(O)c1cc(N=Nc2ccc(S(=O)(=O)O)cc2)ccc1O`, for which the 50% lethal dose (LD50) is 14000 mg/kg. Regarding `CO[C@H]1CC[C@H](O[C@@]2(C)[C@H](C[C@@H]3C[C@@H](OC)[C@@H](C)[C@]4(O3)O[C@](C)(C3CC[C@@H]([C@H]5CC[C@H](C6O[C@](C)(O)[C@H](C)C[C@@H]6C)O5)O3)[C@H](OC)[C@H]4C)O[C@](O)([C@@H](C)C(=O)O)[C@H](C)[C@@H]2OC)O[C@@H]1C` (stereo partly specified), the median lethal dose (LD50) was 10 mg/kg. For the compound `Fc1cc2[nH]c(C(F)(F)F)nc2cc1Cl`, the 50% lethal dose (LD50) was 8.66 mg/kg. Consider `CC(C)c1ccc2ccccc2c1C(C)C`, for which the LD50 was 15200 mg/kg. `Cc1ccc2c(c1)CC(=O)c1cc(C(C)C(=O)O)ccc1S2` (stereo unspecified): the LD50 is 100 mg/kg. Consider `CCNc1nc(NC(C)(C)C)nc(OC)n1`, for which the LD50 is 433 mg/kg. On to `COc1cc(N)c(Cl)cc1C(=O)NC1CCN(CCCOc2ccc(F)cc2)CC1OC` (stereo unspecified), for which the LD50 was 4170 mg/kg. For `CCCSP(=O)(OCC)Oc1c(Cl)cc(Cl)cc1Cl` (stereo unspecified), the LD50 is 151 mg/kg.

Turning to `C=C(Cl)C(=O)Nc1ccc(OC)cc1`, the LD50 was 82 mg/kg. For the compound `Clc1ccc2ccccc2c1`, the LD50 was 2080 mg/kg.

Regarding `CC[N+]1(C)[C@@H]2C[C@@H](OC(=O)[C@H](CO)c3ccccc3)C[C@H]1[C@@H]1O[C@@H]12` (stereo partly specified), the LD50 is 2250 mg/kg. As for `Nc1ccc(C(F)(F)F)cc1NC(=O)c1cccnc1`, the LD50 is 850 mg/kg. As for `Nc1ccc2cc(S(=O)(=O)O)c(/N=N/c3ccc(-c4ccc(/N=N/c5c(S(=O)(=O)O)cc6cc(S(=O)(=O)O)cc(N)c6c5O)cc4)cc3)c(O)c2c1`, the LD50 was 6450 mg/kg. For `O=Cc1ccc([N+](=O)[O-])cc1`, the LD50 is 4700 mg/kg. In the case of `CNC(=O)Oc1ccc(C)c2c1OC(C)(C)C2`, the LD50 is 12 mg/kg. Regarding `CC(=O)Nc1ccc(-c2ccc(N)cc2)cc1`, the median lethal dose (LD50) was 1630 mg/kg.

Take `CC(C=O)c1ccccc1` (stereo unspecified): the LD50 was 2800 mg/kg. `CC1CN(CCO)CC1C` (stereo unspecified): the LD50 is 1230 mg/kg. For `O=C1N(Cc2ccccc2)C2C[S+]3CCCC3C2N1Cc1ccccc1` (stereo unspecified), the LD50 was 2490 mg/kg. On to `CNC(=O)ON=C(C)C(C)SC` (stereo unspecified), for which the median lethal dose (LD50) is 153 mg/kg.

Turning to `COCCOCc1ccccc1`, the LD50 was 2290 mg/kg. `CCN(O)CC`: the LD50 was 2190 mg/kg. As for `O=C(O)CCC(=O)OCC1COC(C(Cl)(Cl)Cl)O1` (stereo unspecified), the LD50 is 3400 mg/kg. `O=C1CSc2ncccc2N1`: the LD50 is 1050 mg/kg.

As for `CC(C)=CCC(=O)c1ccoc1`, the LD50 was 25 mg/kg. Turning to `O=C(Cc1cccs1)N[C@@H]1C(=O)N2C(C(=O)[O-])=C(C[n+]3ccccc3)CS[C@H]12`, the LD50 was 2500 mg/kg. With `CC(CC(c1ccccc1)c1ccccc1)NC(C)(C)C` (stereo unspecified), the LD50 is 465 mg/kg.

For the compound `CCO[Si](CCCC#N)(OCC)OCC`, the LD50 is 4920 mg/kg. On to `CC(=O)SCC(=O)N=c1[nH]c2ccccc2s1`, for which the LD50 is 400 mg/kg.

With `CCCCCCCCOC(=O)CC(C(=O)OCCCCCCCC)S(=O)(=O)O` (stereo unspecified), the LD50 is 1900 mg/kg. As to `CC(C)N(CCC(C(N)=O)(c1ccccc1)c1ccccn1)C(C)C` (stereo unspecified), the LD50 is 880 mg/kg and 333 mg/kg. For the compound `CCOC(=O)C=C(C)OP(=O)(OCC)OCC`, the LD50 is 22 mg/kg.

Consider `FC(F)(F)c1ccc(Cl)cc1Cl`, for which the LD50 was 2150 mg/kg.

Regarding `Cc1nc(C)c(C)nc1C`, the LD50 is 1910 mg/kg. Turning to `COC(=O)C1=C(C)NC(C)=C(C(=O)OCCN2CCN(C(c3ccccc3)c3ccccc3)CC2)C1c1cccc([N+](=O)[O-])c1` (stereo unspecified), the LD50 is 156 mg/kg. For the compound `C[C@@H]1CN(CCCn2c3ccccc3c3ccccc32)C[C@H](C)N1`, the LD50 is 907 mg/kg. As for `O=S(=O)(O)OCCOc1cc(Cl)c(Cl)cc1Cl`, the 50% lethal dose (LD50) was 720 mg/kg. Regarding `FC(F)(F)c1nc2c(Br)c(Cl)c(Br)cc2[nH]1`, the LD50 was 8.47 mg/kg. For the compound `CCN(CC)CCCNc1c2ccccc2nc2cccc([N+](=O)[O-])c12`, the LD50 is 63.2 mg/kg.

On to `CC1(C)OCC(COC(=O)Cc2ccc3c(c2)OCc2ccccc2C3=O)O1` (stereo unspecified), for which the LD50 was 92 mg/kg. As for `O=C(O)/C=C/C(=O)O`, the LD50 is 3850 mg/kg. As for `O=c1nn[nH]c2ccccc12`, the LD50 is 595 mg/kg.

For `COC(=O)c1ccc(NC(C)=O)o1`, the LD50 is 1200 mg/kg. `CN(CCO)c1ccc(N=Nc2c(Cl)cc([N+](=O)[O-])cc2Cl)cc1`: the LD50 is 2820 mg/kg. For `Cc1ccn(C(N)=O)n1`, the LD50 is 830 mg/kg and 1100 mg/kg. Take `ClC(Cl)=C(c1ccc(Cl)cc1)c1ccc(Cl)cc1`: the LD50 is 880 mg/kg. With `CC=C(C(=O)NC(N)=O)C(C)C`, the LD50 was 9000 mg/kg.

On to `CCCCC(CC)COC(C[n+]1ccccc1)c1ccc(C2CCCCC2)cc1` (stereo unspecified), for which the LD50 is 250 mg/kg.

Regarding `CN(C)C#N`, the LD50 was 146 mg/kg.

For `CCOP(=S)(OCC)SC(CC(=O)OCSC)C(=O)OCSC` (stereo unspecified), the LD50 was 3.7 mg/kg. Take `CCCCN(CCN(CCCC)C(=O)N1CCOCC1)C(=O)N1CCOCC1`: the median lethal dose (LD50) is 270 mg/kg. As to `CCCCC(O)C(N)CC` (stereo unspecified), the LD50 was 550 mg/kg. `NC(=S)c1c(Cl)cccc1Cl`: the LD50 is 757 mg/kg. With `c1ccc([Si]23OCCN(CCO2)CCO3)cc1`, the LD50 was 1.48 mg/kg. As for `CN(C)CCNc1ncnc2ccccc12`, the LD50 was 670 mg/kg. In the case of `CNC(=O)ON=C1CCCC1(C)C#N` (stereo unspecified), the median lethal dose (LD50) is 18 mg/kg. As for `N#CC(CCN1CCC(C(=O)O)(c2ccccc2)CC1)(c1ccccc1)c1ccccc1`, the LD50 is 149 mg/kg. `O=C(CF)OCCOC(=O)CF`: the 50% lethal dose (LD50) was 2.2 mg/kg.

`CCN(CC)S(=O)(=O)CCNC(=O)N(CCCl)N=O`: the LD50 was 60 mg/kg. In the case of `c1ccc(Oc2nncc3ccccc23)cc1`, the LD50 was 1000 mg/kg. On to `COC(C)C=O` (stereo unspecified), for which the LD50 was 940 mg/kg.

Turning to `O=C1NC(=O)C(c2ccccc2)(c2ccccc2)N1S(=O)(=O)c1ccccc1`, the LD50 is 1700 mg/kg.

In the case of `O=NN1CCc2ccccc21`, the LD50 is 320 mg/kg. Take `CCc1ccc(C)cc1`: the LD50 was 4850 mg/kg. Turning to `CCC(C)S` (stereo unspecified), the LD50 was 5180 mg/kg.

Consider `CCOP(=S)(OCC)Oc1cc(C)n(C)c(=O)c1`, for which the LD50 was 5.97 mg/kg. In the case of `CCC(C)OC(C[n+]1ccccc1)c1cccc(Cl)c1` (stereo unspecified), the LD50 is 250 mg/kg. Turning to `c1ccsc1`, the LD50 is 1400 mg/kg. As to `CC(C)c1cccc(OC(=O)N(C)N=O)c1`, the median lethal dose (LD50) is 400 mg/kg.

On to `Cc1ccc(C(=O)c2ccc(CC(=O)O)n2C)cc1`, for which the LD50 is 293 mg/kg. With `CCc1ccc(C)cc1O`, the LD50 is 530 mg/kg. In the case of `CCCCOC(=O)C(Cl)(Cl)Oc1ccccc1`, the LD50 was 1500 mg/kg. `Cc1ccccc1OCC(O)CO` (stereo unspecified): the LD50 was 625 mg/kg. Turning to `C[C@]12CC[C@@H]3c4ccc(OC(=O)N(CCCl)CCCl)cc4CC[C@H]3[C@@H]1CC[C@@H]2OP(=O)(O)O`, the LD50 was 5400 mg/kg.

For the compound `O=[N+]([O-])c1ccc(Oc2c(F)cc(Cl)cc2Cl)cc1`, the median lethal dose (LD50) was 2890 mg/kg. For the compound `CC(C)(OOC(C)(C)c1ccccc1)c1ccccc1`, the LD50 is 4100 mg/kg. For the compound `Cc1ccc(C2(O)CCN(CCCC(=O)c3ccc(F)cc3)CC2)cc1`, the LD50 was 152 mg/kg. As to `C=CCOP(OCC=C)OCC=C`, the LD50 is 178 mg/kg. On to `O=C(Cc1ccccc1)NNCc1ccccc1`, for which the median lethal dose (LD50) is 2500 mg/kg. Regarding `C1OC1CSCC1CO1` (stereo unspecified), the LD50 was 32 mg/kg. On to `CCCCc1c(OC(=O)C23CC4CC(CC(C4)C2)C3)n(-c2ccccc2)n(-c2ccccc2)c1=O`, for which the LD50 is 1700 mg/kg. On to `O=C(O)C1CCc2cc(C3CCCCC3)c(Cl)cc21` (stereo unspecified), for which the 50% lethal dose (LD50) is 41 mg/kg and 35 mg/kg. On to `CN(CCO)Cc1cc(C(=O)c2cccs2)cc(C(C)(C)C)c1O`, for which the LD50 was 1000 mg/kg. As to `Fc1c(Cl)c(Br)c2[nH]c(C(F)(F)F)nc2c1Cl`, the LD50 was 6.26 mg/kg. For the compound `C=CC(C)(O)CCC=C(C)C` (stereo unspecified), the LD50 is 2790 mg/kg. Turning to `CCCCCCCCCCCC(=O)N(CCO)CCO`, the LD50 is 2700 mg/kg. As for `Cc1ccc(N=C=O)cc1N=C=O`, the LD50 is 5800 mg/kg. `Cc1ccc2c(c1)CC(=O)c1cc(C(C)C(=O)O)ccc1O2` (stereo unspecified): the 50% lethal dose (LD50) is 147 mg/kg.

In the case of `CCN(CCNC(=O)SCC(C)C)C(=O)SCC(C)C`, the LD50 was 2710 mg/kg. `c1ccc2c3c([nH]c2c1)CCCC3`: the LD50 is 2650 mg/kg.

`O=[N+]([O-])c1ccc(O)c(Cl)c1`: the LD50 was 900 mg/kg. With `CC(NNC(=O)c1ccccc1)c1ccccc1` (stereo unspecified), the median lethal dose (LD50) was 675 mg/kg. In the case of `[N-]=[N+]=CC(=O)OC[C@H](N)C(=O)O`, the LD50 is 170 mg/kg. With `O=NN(Cc1ccccc1)Cc1ccccc1`, the LD50 is 900 mg/kg. `O=C(O)c1nn(Cc2ccc(Cl)cc2Cl)c2ccccc12`: the LD50 was 1700 mg/kg. As to `O=S(=O)(Nc1ncc(OCCO)cn1)c1ccccc1`, the LD50 is 8000 mg/kg. For the compound `FC(F)(F)C(=NOCC1OCCO1)c1ccc(Cl)cc1`, the LD50 is 669 mg/kg.

Take `CC=CC(=O)OCC`: the LD50 was 3000 mg/kg.
